Measurements as given in PubChem BioAssay AID248 (DTP/NCI, 2004).
“And” between values parts separate entries of the source, which are not always exact repeats. Equal values may be shown once. Inconclusive results and toxic doses are left out.

System: L1210 leukemia ip in BDF1 mice, survival T/C
Test: NCI In Vivo Anticancer Drug Screen. Data for tumor model L1210 Leukemia (intraperitoneal) in B6D2F1 (BDF1) mice
Conditions: endpoint: mean survival time, higher = longer survival
Outline: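 Transplanted-tumor mice were given test agent; controls received vehicle only. Survival readings from the two groups were divided (treated over control).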

[1] = dose: 100.0 mg/kg/injection, schedule: Q01DX009 (ip), vehicle: Klucel (hydroxypropylcellulose) (HPC)

With `CC(=O)OCC1OC(n2ccc(N)nc2=O)C(OC(C)=O)C1OC(C)=O` (stereo not drawn) the T/C (dose: 6.3 mg/kg/injection, schedule: Q01DX015 (oral), vehicle: carboxymethylcellulose (CMC)) was 117 % of control, the T/C (dose: 6.6 mg/kg/injection, schedule: Q03HX024 (ip), vehicle: carboxymethylcellulose (CMC)) was 156 % of control and the T/C (dose: 10.0 mg/kg/injection, schedule: Q01DX015 (ip), vehicle: saline) was 101 % of control. For the same molecule, the T/C (dose: 11.0 mg/kg/injection, schedule: Q03HX008 (ip), vehicle: carboxymethylcellulose (CMC)) was 121 % of control, the T/C (dose: 11.0 mg/kg/injection, schedule: Q03HX024 (ip), vehicle: carboxymethylcellulose (CMC)) was 184 % of control and the T/C (dose: 12.5 mg/kg/injection, schedule: Q01DX015 (oral), vehicle: carboxymethylcellulose (CMC)) was 116 % of control. The T/C (dose: 15.0 mg/kg/injection, schedule: Q01DX015 (ip), vehicle: saline) was 117 % of control, the T/C (dose: 18.0 mg/kg/injection, schedule: Q03HX024 (ip), vehicle: carboxymethylcellulose (CMC)) was 207 % of control and the T/C (dose: 23.0 mg/kg/injection, schedule: Q01DX015 (ip), vehicle: saline) was 124 % of control. The T/C (dose: 25.0 mg/kg/injection, schedule: Q01DX015 (oral), vehicle: carboxymethylcellulose (CMC)) was 122 % of control, the T/C (dose: 30.0 mg/kg/injection, schedule: Q03HX024 (ip), vehicle: carboxymethylcellulose (CMC)) was 246 % of control and the T/C (dose: 35.0 mg/kg/injection, schedule: Q01DX015 (ip), vehicle: saline) was 150 % of control and 168 % of control. The T/C (dose: 37.0 mg/kg/injection, schedule: Q01DX009 (oral), vehicle: water) was 123 % of control, the T/C (dose: 37.0 mg/kg/injection, schedule: Q## X024 (oral), vehicle: water) was 100 % of control and the T/C (dose: 50.0 mg/kg/injection, schedule: Q01DX009 (ip), vehicle: saline) was 153 % of control. For the same molecule, the T/C (dose: 50.0 mg/kg/injection, schedule: Q01DX009 (ip), vehicle: water) was 171 % of control, the T/C (dose: 50.0 mg/kg/injection, schedule: Q01DX009 (sc), vehicle: water) was 158 % of control and the T/C (dose: 51.0 mg/kg/injection, schedule: Q01DX009 (ip), vehicle: carboxymethylcellulose (CMC)) was 180 % of control. For the same molecule, the T/C (dose: 51.0 mg/kg/injection, schedule: Q03HX008 (ip), vehicle: carboxymethylcellulose (CMC)) was 157 % of control, the T/C (dose: 55.0 mg/kg/injection, schedule: Q01DX015 (ip), vehicle: saline) was 201 % of control and the T/C (dose: 75.0 mg/kg/injection, schedule: Q01DX005 (oral), vehicle: water) was 121 % of control. The T/C (dose: 75.0 mg/kg/injection, schedule: Q01DX009 (oral), vehicle: water) was 117 % of control, the T/C (dose: 86.0 mg/kg/injection, schedule: Q01DX009 (ip), vehicle: carboxymethylcellulose (CMC)) was 213 % of control and the T/C (dose: 100.0 mg/kg/injection, schedule: Q01DX005 (ip), vehicle: saline) was 154 % of control and 164 % of control. For the same molecule, the T/C (dose: 100.0 mg/kg/injection, schedule: Q01DX009 (ip), vehicle: saline) was 222 % of control, the T/C (dose: 100.0 mg/kg/injection, schedule: Q01DX009 (ip), vehicle: water) was 235 % of control and the T/C (dose: 100.0 mg/kg/injection, schedule: Q01DX009 (sc), vehicle: water) was 205 % of control. For the same molecule, the T/C (dose: 100.0 mg/kg/injection, schedule: Q01DX011 (oral), vehicle: water) was 156 % of control and 175 % of control, the T/C (dose: 125.0 mg/kg/injection, schedule: Q01DX015 (ip), vehicle: saline) was 314 % of control and the T/C (dose: 150.0 mg/kg/injection, schedule: Q01DX001 (ip), vehicle: water) was 114 % of control. The T/C (dose: 150.0 mg/kg/injection, schedule: Q01DX001 (sc), vehicle: water) was 150 % of control, the T/C (dose: 150.0 mg/kg/injection, schedule: Q01DX005 (oral), vehicle: water) was 112 % of control and the T/C (dose: 150.0 mg/kg/injection, schedule: Q## X003 (oral), vehicle: water) was 120 % of control. The T/C (dose: 150.0 mg/kg/injection, schedule: Q## X024 (oral), vehicle: water) was 104 % of control and 113 % of control, the T/C (dose: 200.0 mg/kg/injection, schedule: Q01DX005 (ip), vehicle: saline) was 190 % of control and 198 % of control and the T/C (dose: 200.0 mg/kg/injection, schedule: Q01DX009 (ip), vehicle: saline) was 109 % of control. The T/C (dose: 200.0 mg/kg/injection, schedule: Q01DX009 (ip), vehicle: water) was 88 % of control, the T/C (dose: 200.0 mg/kg/injection, schedule: Q01DX009 (sc), vehicle: water) was 95 % of control and the T/C (dose: 200.0 mg/kg/injection, schedule: Q01DX011 (oral), vehicle: water) was 201 % of control. For the same molecule, the T/C (dose: 250.0 mg/kg/injection, schedule: Q01DX001 (ip), vehicle: saline) was 116 % of control, the T/C (dose: 250.0 mg/kg/injection, schedule: Q01DX015 (ip), vehicle: saline) was 86 % of control and the T/C (dose: 300.0 mg/kg/injection, schedule: Q01DX001 (ip), vehicle: water) was 118 % of control. For the same molecule, the T/C (dose: 300.0 mg/kg/injection, schedule: Q01DX001 (oral), vehicle: water) was 103 % of control and 108 % of control, the T/C (dose: 300.0 mg/kg/injection, schedule: Q01DX005 (oral), vehicle: water) was 184 % of control and the T/C (dose: 300.0 mg/kg/injection, schedule: Q01DX009 (oral), vehicle: water) was 167 % of control. The T/C (dose: 300.0 mg/kg/injection, schedule: Q07DX004 (oral), vehicle: water) was 103 % of control, the T/C (dose: 300.0 mg/kg/injection, schedule: Q## X006 (oral), vehicle: water) was 108 % of control and the T/C (dose: 300.0 mg/kg/injection, schedule: Q## X008 (oral), vehicle: water) was 112 % of control. For the same molecule, the T/C (dose: 300.0 mg/kg/injection, schedule: Q## X024 (oral), vehicle: water) was 113 % of control, the T/C (dose: 400.0 mg/kg/injection, schedule: Q01DX011 (oral), vehicle: water) was 179 % of control and the T/C (dose: 600.0 mg/kg/injection, schedule: Q01DX001 (oral), vehicle: water) was 108 % of control and 114 % of control. For the same molecule, the T/C (dose: 600.0 mg/kg/injection, schedule: Q01DX005 (oral), vehicle: water) was 153 % of control, the T/C (dose: 600.0 mg/kg/injection, schedule: Q01DX009 (oral), vehicle: water) was 185 % of control and the T/C (dose: 600.0 mg/kg/injection, schedule: Q07DX004 (oral), vehicle: water) was 107 % of control. For the same molecule, the T/C (dose: 600.0 mg/kg/injection, schedule: Q## X003 (oral), vehicle: water) was 153 % of control, the T/C (dose: 600.0 mg/kg/injection, schedule: Q## X006 (oral), vehicle: water) was 114 % of control and the T/C (dose: 600.0 mg/kg/injection, schedule: Q## X024 (oral), vehicle: water) was 120 % of control. The T/C (dose: 660.0 mg/kg/injection, schedule: Q04DX003 (ip), vehicle: carboxymethylcellulose (CMC)) was 214 % of control, the T/C (dose: 800.0 mg/kg/injection, schedule: Q01DX011 (oral), vehicle: water) was 121 % of control and the T/C (dose: 1000.0 mg/kg/injection, schedule: Q01DX001 (ip), vehicle: saline) was 164 % of control. The T/C (dose: 1099.0 mg/kg/injection, schedule: Q01DX001 (ip), vehicle: carboxymethylcellulose (CMC)) was 160 % of control, the T/C (dose: 1099.0 mg/kg/injection, schedule: Q04DX003 (ip), vehicle: carboxymethylcellulose (CMC)) was 244 % of control and the T/C (dose: 1200.0 mg/kg/injection, schedule: Q01DX001 (oral), vehicle: water) was 115 % of control and 121 % of control. For the same molecule, the T/C (dose: 1200.0 mg/kg/injection, schedule: Q01DX005 (oral), vehicle: water) was 153 % of control and 180 % of control, the T/C (dose: 1200.0 mg/kg/injection, schedule: Q01DX015 (oral), vehicle: carboxymethylcellulose (CMC)) was 100 % of control and the T/C (dose: 1200.0 mg/kg/injection, schedule: Q07DX004 (oral), vehicle: water) was 119 % of control. For the same molecule, the T/C (dose: 1200.0 mg/kg/injection, schedule: Q## X003 (oral), vehicle: water) was 185 % of control, the T/C (dose: 1832.0 mg/kg/injection, schedule: Q01DX001 (ip), vehicle: carboxymethylcellulose (CMC)) was 156 % of control and the T/C (dose: 1832.0 mg/kg/injection, schedule: Q04DX003 (ip), vehicle: carboxymethylcellulose (CMC)) was 228 % of control. For the same molecule, the T/C (dose: 2400.0 mg/kg/injection, schedule: Q01DX001 (oral), vehicle: water) was 109 % of control, the T/C (dose: 2400.0 mg/kg/injection, schedule: Q07DX004 (oral), vehicle: water) was 123 % of control and the T/C (dose: 2400.0 mg/kg/injection, schedule: Q## X003 (oral), vehicle: water) was 189 % of control. For the same molecule, the T/C (dose: 2400.0 mg/kg/injection, schedule: Q## X006 (oral), vehicle: water) was 181 % of control.

In the case of `CCn1c(N)c(N)c(=O)[nH]c1=S`, the T/C (dose: 100.0 mg/kg/injection, schedule: Q04DX003 (ip), vehicle: saline with Tween-80) is reported as 86 % of control, the T/C (dose: 200.0 mg/kg/injection, schedule: Q04DX003 (ip), vehicle: saline with Tween-80) is reported as 93 % of control and the T/C (dose: 400.0 mg/kg/injection, schedule: Q04DX003 (ip), vehicle: saline with Tween-80) is reported as 86 % of control.

With `O=C1c2cccc3cccc(c23)C(=O)N1Cc1ccco1` the T/C [1] was 94 % of control, the T/C (dose: 200.0 mg/kg/injection, schedule: Q01DX009 (ip), vehicle: Klucel (hydroxypropylcellulose) (HPC)) was 89 % of control and the T/C (dose: 400.0 mg/kg/injection, schedule: Q01DX009 (ip), vehicle: Klucel (hydroxypropylcellulose) (HPC)) was 93 % of control.

In the case of `N#Cc1c(=O)[nH]c2ccccc2[n+]1[O-]`, the T/C (dose: 50.0 mg/kg/injection, schedule: Q01DX009 (ip), vehicle: Klucel (hydroxypropylcellulose) (HPC)) is reported as 107 % of control and the T/C [1] is reported as 104 % of control.

In the case of `O=C(CC(O)C(Cl)(Cl)Cl)CC(O)C(Cl)(Cl)Cl` (stereo not drawn), the T/C (dose: 100.0 mg/kg/injection, schedule: Q04DX002 (ip), vehicle: saline) is reported as 96 % of control and the T/C (dose: 200.0 mg/kg/injection, schedule: Q04DX002 (ip), vehicle: saline) is reported as 107 % of control.
